Usually IC50 stands for the concentration needed to halve the response being measured.

Each structure is given as a SMILES string. A value given as a limit tells only on which side of the number the result lay.

The target in assay [1] is SHP-2 enzyme (Met1-Leu525) (Homo sapiens (Human), UniProt Q06124). The assay can be described thus: SHP2 inhibition enzymatic assay. It is filed as biochemical. The note with it: 0.5 nM SHP-2 activated by 500 nM IRS1 peptide, 75 μM DiFMUP substrate; read-out: SHP2wt-IC50. The procedure, abridged:
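Compounds were preincubated 30 min with 0.5 nM SHP-2 (Met1-Leu525) plus 500 nM IRS1 activating peptide (pH 7.2 HEPES, 5 mM DTT), then 75 μM DiFMUP substrate reacted 30 min at room temperature. After bpV quench, DiFMUP fluorescence gave % inhibition; four-parameter logistic fit yielded IC50.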

The subject of assay [2] is ERK phosphorylation in KYSE-520 cells. Put plainly: Phospho-ERK cellular assay. It is filed as cell-based. As to conditions: Homo sapiens, KYSE-520, 2 h, KYSE-520 cells, 2 h at 37° C., phospho-ERK1/2 (Thr202/Tyr204) TR-FRET; read-out: PERK IC50. The procedure, abridged: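 TR-FRET read-out of ERK1/2 Thr202/Tyr204 phosphorylation was taken after overnight antibody incubation at room temperature. Before that, KYSE-520 cells were treated 2 h at 37 °C with compound dilutions and lysed 30 min. Percent inhibition relative to vehicle and cell-free wells was fitted four-parametrically to give IC50.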
(TR-FRET usually uses a lanthanide donor and a delayed reading to cut background.)

SHP-2 enzyme (Met1-Leu525), sequence (Q06124 1-525): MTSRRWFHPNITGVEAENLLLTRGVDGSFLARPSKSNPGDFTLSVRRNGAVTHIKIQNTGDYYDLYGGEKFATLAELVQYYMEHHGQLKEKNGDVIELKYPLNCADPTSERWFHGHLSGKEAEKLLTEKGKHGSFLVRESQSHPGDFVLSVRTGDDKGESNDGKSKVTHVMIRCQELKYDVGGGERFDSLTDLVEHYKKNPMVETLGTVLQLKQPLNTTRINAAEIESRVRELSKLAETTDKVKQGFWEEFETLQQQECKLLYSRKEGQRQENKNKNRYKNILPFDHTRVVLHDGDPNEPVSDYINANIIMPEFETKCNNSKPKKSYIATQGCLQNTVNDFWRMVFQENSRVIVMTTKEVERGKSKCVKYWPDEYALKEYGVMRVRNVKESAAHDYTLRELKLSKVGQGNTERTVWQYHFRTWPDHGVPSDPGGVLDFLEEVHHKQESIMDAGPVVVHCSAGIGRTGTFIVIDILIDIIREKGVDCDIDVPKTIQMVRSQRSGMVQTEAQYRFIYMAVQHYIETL

As for `NC[C@]1(c2ccccc2F)[C@@H]2CCN(c3cnc4c(-c5cc(F)c6ncccc6c5)n[nH]c4n3)C[C@@H]21` [Example 174, ((1S,6R,7R)-7-(2-fluorophenyl)-3-(3-(8-fluoroquinolin-6-yl)-1H-pyrazolo[3,4-b]pyrazin-6-yl)-3-azabicyclo[4.1.0]heptan-7-yl)methanamine], the 50% inhibitory concentration (IC50) in assay [1] is under 500 nM; in assay [2], under 1000 nM.

As to `NC[C@]1(c2ccccc2F)[C@@H]2CCN(c3cnc4c(-c5cc6cccnc6cc5F)n[nH]c4n3)C[C@@H]21` [Example 175, ((1S,6R,7R)-7-(2-fluorophenyl)-3-(3-(7-fluoroquinolin-6-yl)-1H-pyrazolo[3,4-b]pyrazin-6-yl)-3-azabicyclo[4.1.0]heptan-7-yl)methanamine], the values for the half-maximal inhibitory concentration (IC50) in assay [1] and in assay [2] were under 500 nM and under 1000 nM, respectively.

Turning to `NC[C@]1(c2ccccc2F)[C@@H]2CCN(c3cnc4c(-c5ccncc5Cl)n[nH]c4n3)C[C@@H]21` [Example 176, ((1S,6R,7R)-3-(3-(3-chloropyridin-4-yl)-1H-pyrazolo[3,4-b]pyrazin-6-yl)-7-(2-fluorophenyl)-3-azabicyclo[4.1.0]heptan-7-yl)methanamine], the IC50 in assay [1] was under 500 nM; in assay [2] it was under 1000 nM.

Take `Cc1c(-c2n[nH]c3nc(N4CC[C@@H]5[C@H](C4)[C@@]5(CN)c4cccc(F)c4F)cnc23)ccc2nn(C)cc12` [Example 177, ((1S,6R,7R)-7-(2,3-difluorophenyl)-3-(3-(2,4-dimethyl-2H-indazol-5-yl)-1H-pyrazolo[3,4-b]pyrazin-6-yl)-3-azabicyclo[4.1.0]heptan-7-yl)methanamine]: the results for the IC50 in assay [1] and in assay [2] were under 500 nM and under 1000 nM, respectively.

For the compound `NC[C@]1(c2cccc(F)c2F)[C@@H]2CCN(c3cnc4c(-c5ccnc(N)c5Cl)n[nH]c4n3)C[C@@H]21` [Example 178, 4-(6-((1S,6R,7R)-7-(aminomethyl)-7-(2,3-difluorophenyl)-3-azabicyclo[4.1.0]heptan-3-yl)-1H-pyrazolo[3,4-b]pyrazin-3-yl)-3-chloropyridin-2-amine], the IC50 in assay [1] was under 500 nM; in assay [2], under 1000 nM.

Regarding `Cc1c(-c2n[nH]c3nc(N4CC[C@@H]5[C@H](C4)[C@@]5(CN)c4ncccc4F)cnc23)ccc2nn(C)cc12` [Example 179, ((1S,6R,7S)-3-(3-(2,4-dimethyl-2H-indazol-5-yl)-1H-pyrazolo[3,4-b]pyrazin-6-yl)-7-(3-fluoropyridin-2-yl)-3-azabicyclo[4.1.0]heptan-7-yl)methanamine], the 50% inhibitory concentration (IC50) is under 500 nM in assay [1] and under 1000 nM in assay [2].

Take `Cc1c(-c2n[nH]c3nc(N4CC[C@@H]5[C@H](C4)[C@@]5(CN)c4ccccc4Cl)cnc23)ccc2nn(C)cc12` [Example 180, ((1S,6R,7R)-7-(2-chlorophenyl)-3-(3-(2,4-dimethyl-2H-indazol-5-yl)-1H-pyrazolo[3,4-b]pyrazin-6-yl)-3-azabicyclo[4.1.0]heptan-7-yl)methanamine]: the 50% inhibitory concentration (IC50) in assay [1] was under 500 nM; in assay [2], under 1000 nM.

On to `NC[C@]1(c2ccccc2Cl)[C@@H]2CCN(c3cnc4c(-c5ccnc(N)c5Cl)n[nH]c4n3)C[C@@H]21` [Example 181, 4-(6-((1S,6R,7R)-7-(aminomethyl)-7-(2-chlorophenyl)-3-azabicyclo[4.1.0]heptan-3-yl)-1H-pyrazolo[3,4-b]pyrazin-3-yl)-3-chloropyridin-2-amine], for which the figures for the half-inhibitory concentration (IC50) in assay [1] and in assay [2] were under 500 nM and under 1000 nM, respectively.

`Cc1c(-c2n[nH]c3nc(N4CC[C@@H]5[C@H](C4)[C@@]5(CN)c4ccccc4C(F)(F)F)cnc23)ccc2nn(C)cc12` [Example 182, ((1S,6R,7R)-3-(3-(2,4-dimethyl-2H-indazol-5-yl)-1H-pyrazolo[3,4-b]pyrazin-6-yl)-7-(2-(trifluoromethyl)phenyl)-3-azabicyclo[4.1.0]heptan-7-yl)methanamine]: the IC50 in assay [1] is under 500 nM; in assay [2] it was under 1000 nM.

`COc1ccc(-c2n[nH]c3nc(N4CC[C@@H]5[C@H](C4)[C@@]5(CN)c4cccc(F)c4F)cnc23)c2cccnc12` [Example 183, ((1S,6R,7R)-7-(2,3-difluorophenyl)-3-(3-(8-methoxyquinolin-5-yl)-1H-pyrazolo[3,4-b]pyrazin-6-yl)-3-azabicyclo[4.1.0]heptan-7-yl)methanamine]: the IC50 in assay [1] was under 500 nM; in assay [2] it was under 1000 nM.

Consider `Cc1cccc([C@@]2(CN)[C@@H]3CCN(c4cnc5c(-c6ccc7nn(C)cc7c6C)n[nH]c5n4)C[C@@H]32)c1F` [Example 184, ((1S,6R,7R)-3-(3-(2,4-dimethyl-2H-indazol-5-yl)-1H-pyrazolo[3,4-b]pyrazin-6-yl)-7-(2-fluoro-3-methylphenyl)-3-azabicyclo[4.1.0]heptan-7-yl)methanamine], for which the figures for the half-inhibitory concentration (IC50) in assay [1] and in assay [2] were under 500 nM and under 1000 nM, respectively.

Take `Cc1c(-c2n[nH]c3nc(N4CC[C@@H]5[C@H](C4)[C@@]5(CN)c4ncc(C5CC5)cc4F)cnc23)ccc2nn(C)cc12` [Example 185, ((1S,6R,7S)-7-(5-cyclopropyl-3-fluoropyridin-2-yl)-3-(3-(2,4-dimethyl-2H-indazol-5-yl)-1H-pyrazolo[3,4-b]pyrazin-6-yl)-3-azabicyclo[4.1.0]heptan-7-yl)methanamine]: the IC50 was under 500 nM in assay [1] and under 1000 nM in assay [2].

On to `NC[C@]1(c2ccccc2F)[C@@H]2CCN(c3cnc4c(-c5ccnc6occc56)n[nH]c4n3)C[C@@H]21` [Example 186, ((1S,6R,7R)-7-(2-fluorophenyl)-3-(3-(furo[2,3-b]pyridin-4-yl)-1H-pyrazolo[3,4-b]pyrazin-6-yl)-3-azabicyclo[4.1.0]heptan-7-yl)methanamine], for which the values for the IC50 in assay [1] and in assay [2] were under 500 nM and under 1000 nM, respectively.

On to `NC[C@]1(c2ccccc2F)[C@@H]2CCN(c3cnc4c(-c5ccc6c(c5)CC(=O)N6)n[nH]c4n3)C[C@@H]21` [Example 187, 5-(6-((1S,6R,7R)-7-(aminomethyl)-7-(2-fluorophenyl)-3-azabicyclo[4.1.0]heptan-3-yl)-1H-pyrazolo[3,4-b]pyrazin-3-yl)indolin-2-one], for which the IC50 in assay [1] was under 500 nM; in assay [2] it was under 1000 nM.

Turning to `COc1cnc2ccc(-c3n[nH]c4nc(N5CC[C@@H]6[C@H](C5)[C@@]6(CN)c5ccccc5F)cnc34)cc2n1` [Example 188, ((1S,6R,7R)-7-(2-fluorophenyl)-3-(3-(3-methoxyquinoxalin-6-yl)-1H-pyrazolo[3,4-b]pyrazin-6-yl)-3-azabicyclo[4.1.0]heptan-7-yl)methanamine], the values for the half-inhibitory concentration (IC50) in assay [1] and in assay [2] were under 500 nM and under 1000 nM, respectively.

In the case of `Cc1nccc(-c2n[nH]c3nc(N4CC[C@@H]5[C@H](C4)[C@@]5(CN)c4ccccc4F)cnc23)c1Cl` [Example 189, ((1S,6R,7R)-3-(3-(3-chloro-2-methylpyridin-4-yl)-1H-pyrazolo[3,4-b]pyrazin-6-yl)-7-(2-fluorophenyl)-3-azabicyclo[4.1.0]heptan-7-yl)methanamine], the IC50 in assay [1] is under 500 nM; in assay [2], under 1000 nM.

Consider `CN(C)c1nccc(-c2n[nH]c3nc(N4CC[C@@H]5[C@H](C4)[C@@]5(CN)c4ccccc4F)cnc23)c1Cl` [Example 190, 4-(6-((1S,6R,7R)-7-(aminomethyl)-7-(2-fluorophenyl)-3-azabicyclo[4.1.0]heptan-3-yl)-1H-pyrazolo[3,4-b]pyrazin-3-yl)-3-chloro-N,N-dimethylpyridin-2-amine], for which the values for the IC50 in assay [1] and in assay [2] were under 500 nM and under 1000 nM, respectively.

On to `COc1ccc2c(-c3n[nH]c4nc(N5CC[C@@H]6[C@H](C5)[C@@]6(CN)c5ccccc5F)cnc34)ccnc2c1` [Example 191, ((1S,6R,7R)-7-(2-fluorophenyl)-3-(3-(7-methoxyquinolin-4-yl)-1H-pyrazolo[3,4-b]pyrazin-6-yl)-3-azabicyclo[4.1.0]heptan-7-yl)methanamine], for which the values for the half-maximal inhibitory concentration (IC50) in assay [1] and in assay [2] were under 500 nM and under 1000 nM, respectively.

As for `CN(C)Cc1ccc(-c2n[nH]c3nc(N4CC[C@@H]5[C@H](C4)[C@@]5(CN)c4ccccc4F)cnc23)c2cccnc12` [Example 192, 1-(5-(6-((1S,6R,7R)-7-(aminomethyl)-7-(2-fluorophenyl)-3-azabicyclo[4.1.0]heptan-3-yl)-1H-pyrazolo[3,4-b]pyrazin-3-yl)quinolin-8-yl)-N,N-dimethylmethanamine], the IC50 in assay [1] was under 500 nM; in assay [2] it was over 5000 nM.

Take `Cc1c(-c2n[nH]c3nc(N4CC[C@@H]5[C@H](C4)[C@@]5(CN)c4ccccc4F)cnc23)ccc2nonc12` [Example 193, ((1S,6R,7R)-7-(2-fluorophenyl)-3-(3-(4-methylbenzo[c][1,2,5]oxadiazol-5-yl)-1H-pyrazolo[3,4-b]pyrazin-6-yl)-3-azabicyclo[4.1.0]heptan-7-yl)methanamine]: the IC50 in assay [1] was under 500 nM; in assay [2], under 1000 nM.

For `Cn1cc2c(C3CC3)c(-c3n[nH]c4nc(N5CC[C@@H]6[C@H](C5)[C@@]6(CN)c5ccccc5F)cnc34)ccc2n1` [Example 194, ((1S,6R,7R)-3-(3-(4-cyclopropyl-2-methyl-2H-indazol-5-yl)-1H-pyrazolo[3,4-b]pyrazin-6-yl)-7-(2-fluorophenyl)-3-azabicyclo[4.1.0]heptan-7-yl)methanamine], the half-maximal inhibitory concentration (IC50) in assay [1] was under 500 nM; in assay [2], under 1000 nM.

Source of the values: patent US20240109900A1, “AZABICYCLIC SHP2 INHIBITORS” (IRBM S.P.A., priority 2021, published 2024).
